From PMC9847679, “The anti-breast cancer stem cell properties of gold(I)-non-steroidal anti-inflammatory drug complexes” (Chemical Science, 2022)
Where two headings read alike, the source gives them in different places.

What was measured:
[1] = tested on: HMLER-shEcad mammospheres; assay: Mammosphere viability assay (TOX8); format: cell-based, human; settings: 5 days incubation
Method: Tumorsphere Formation and Viability Assay.
in ultralow-attachment 96-well plates (Corning) and incubated in MEGM supplemented with B27 (Invitrogen), 20 ng mL-1 EGF and 4 μg mL-1 heparin (Sigma) for 5 days. […] The viability of the mammospheres was determined by addition of a resazurin-based reagent, TOX8 (Sigma). After incubation for 16 h, the fluorescence of the solutions was read at 590 nm (λex = 560 nm). Viable mammospheres reduce the amount of the oxidised TOX8 form (blue) and concurrently increase the amount of the fluorescent TOX8 intermediate (red), indicating the degree of mammosphere cytotoxicity caused by the test compound. Fluorescence values were normalised to DMSO-containing controls and plotted as concentration of test compound versus % mammospheres viability. IC50 values were interpolated from the resulting dose dependent curves. The reported IC50 values are the average of three independent experiments, each consisting of two replicates per concentration level (overall n = 6).

HMLER-shEcad cells [2] = assay: Monolayer cytotoxicity (MTT assay), HMLER-shEcad cells; format: cell-based, human
From the text: (§1) Cell Lines and Cell Culture Conditions. The human mammary epithelial HMLER and HMLER-shEcad cell lines were kindly donated by Prof. R. A. Weinberg (Whitehead Institute, MIT). The human epithelial breast MCF10A, breast adenocarcinoma MDA-MB-231 and MDA-MB-468, murine epithelial breast 4T1, and embryonic kidney HEK 293 cell lines were acquired from American Type Culture Collection (ATCC, Manassas, VA, USA).
(§2) HMLER, HMLER-shEcad, and MCF10A cells were maintained in Mammary Epithelial Cell Growth Medium (MEGM) with supplements and growth factors (BPE, hydrocortisone, hEGF, insulin, and gentamicin/amphotericin-B). MDA-MB-231, MDA-MB-468, 4T1, and HEK 293 cells were maintained in Dulbecco's Modified Eagle's Medium (DMEM) supplemented with fetal bovine serum (10 %) and penicillin/streptomycin (1 %). The cells were grown at 310 K in a humidified atmosphere containing 5% CO2.
(§3) Monolayer Cytotoxicity Studies. Exponentially growing cells were seeded at a density of approximately 5 × 10^3 cells per well in 96-well flat-bottomed microplates and allowed to attach for 24 h prior to addition of compounds. Various concentrations of the test compounds (0.0004-100 μM) were added and incubated for 72 h at 37 °C (total volume 200 μl). Stock solutions of the compounds were prepared as 10 mM DMSO solutions and diluted using cell […]
(§4) media. The final concentration of DMSO in each well was ≤1 %. After 72 h, 20 μl of MTT (4 mg mL-1 in PBS) was added to each well and the plates incubated for an additional 4 h at 37 °C. The media/MTT mixture was eliminated and DMSO (100 μl per well) was added to dissolve the formazan precipitates. The optical density was measured at 550 nm using a 96-well multiscanner autoreader. Absorbance values were normalised to (DMSO-containing) control wells and plotted as concentration of test compound versus % cell viability. IC50 values were interpolated from the resulting dose dependent curves. The reported IC50 values are the average of three independent experiments (n = 18). […]
(§5) After incubation for 16 […]
(§6) h, the fluorescence of the solutions was read at 590 nm (λex = 560 nm). Viable mammospheres reduce the amount of the oxidised TOX8 form (blue) and concurrently increase the amount of the fluorescent TOX8 intermediate (red), indicating the degree of mammosphere cytotoxicity caused by the test compound. […]
(§7) Cellular Uptake. To measure the cellular uptake of 1-3 about 1 million HMLER-shEcad cells were treated with 1-3 (0.25 μM) at 37 °C for 24 h. After incubation, the media was removed, the cells were washed with PBS (2 mL × 3) and harvested. The number of cells was counted at this stage, using a haemocytometer. This mitigates any cell death induced by 1-3 at the administered concentration and experimental cell loss. The cellular pellets were dissolved in 65% HNO3 (250 µL) overnight. A cellular pellet of HMLER-shEcad cells treated with 1 was also used to determine the gold content in the nuclear, cytoplasmic and membrane fractions. The Thermo Scientific NE-PER Nuclear and Cytoplasmic Extraction Kit was used to extract and separate the nuclear, cytoplasmic and membrane fractions. The fractions were dissolved in 65% HNO3 (250 µL final volume) overnight. All samples were diluted 17-fold with water and analysed using inductively coupled plasma mass spectrometry (ICP-MS, Thermo Scientific ICAP-Qc quadrupole ICP mass spectrometer). Gold levels are expressed as mass of Au (ng) per million cells. Results are presented as the mean of four determinations for each data point.
(§8) Intracellular ROS Assay. […]

HMLER cells = assay: Monolayer cytotoxicity (MTT assay), HMLER cells; format: cell-based, human
From the text: as §1, §2, §3, §4, §5, §6, §7, §8

[3] = tested on: HMLER-shEcad mammospheres; design: method as in PMID 26806362, PMID 31209956, PMID 28932846; settings: read-out: Mammosphere IC50; cited from earlier work
HMLER-shEcad cells [4] = tested on: HMLER-shEcad cells; design: method as in PMID 26806362, PMID 31209956, PMID 28932846; settings: cited from earlier work
COX-2 [5] = molecular target: T1, COX-2 (Ovis aries, UniProt P79208); assay: COX-2 inhibition enzyme immunoassay (EIA); format: biochemical, ovine; settings: COX-2-catalysed conversion of arachidonic acid to prostaglandin, tested 1-250 μM
T1 construct: purchased Cayman Chemicals
T1 sequence (P79208 17-603): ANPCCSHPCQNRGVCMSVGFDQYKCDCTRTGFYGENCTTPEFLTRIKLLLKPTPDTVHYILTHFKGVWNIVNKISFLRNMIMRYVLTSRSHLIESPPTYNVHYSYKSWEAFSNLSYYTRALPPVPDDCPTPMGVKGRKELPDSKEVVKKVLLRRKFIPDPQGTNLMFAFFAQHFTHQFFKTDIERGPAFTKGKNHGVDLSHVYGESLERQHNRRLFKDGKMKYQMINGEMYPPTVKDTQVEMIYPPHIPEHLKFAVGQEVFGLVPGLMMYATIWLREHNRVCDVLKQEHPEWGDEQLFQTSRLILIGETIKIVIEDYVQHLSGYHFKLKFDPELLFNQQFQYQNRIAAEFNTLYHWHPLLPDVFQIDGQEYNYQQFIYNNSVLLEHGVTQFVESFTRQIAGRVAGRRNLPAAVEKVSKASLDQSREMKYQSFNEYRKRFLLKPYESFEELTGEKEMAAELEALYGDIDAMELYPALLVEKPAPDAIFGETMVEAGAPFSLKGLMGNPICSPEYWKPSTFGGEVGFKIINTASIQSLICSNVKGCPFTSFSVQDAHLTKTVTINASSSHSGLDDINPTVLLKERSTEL
Method: ice-cold methanol (for 30 min), and suspended in PBS (200 μL). […]
COX-2 Inhibition Enzyme Immunoassay (EIA). The COX-2 inhibitory properties of 1,
indomethacin, and ch loro(triphenylphosphine)gold(I) was determined using the “COX
(ovine) Inhibitor Screening Assay (Cayman Chemicals).” The assay was performed
according to the manuf acturer’s instructions using a 96-well plate set up.

MDA-MB-231 cells = assay: Monolayer cytotoxicity (MTT assay), MDA-MB-231 cells; format: cell-based, human; settings: 72 h incubation
From the text: as §1, §2, §3
(§9) media. The final concentration of DMSO in each well was ≤1 %. […] The optical density was measured at 550 nm using a 96-well multiscanner autoreader. Absorbance values were normalised to (DMSO-containing) control wells and plotted as concentration of test compound versus % cell viability. […]
(§10) h, the fluorescence of the solutions was read at 590 nm (λex = 560 nm). […]
(§11) Cellular Uptake. […] The number of cells was counted at this stage, using a haemocytometer. […] All samples were diluted 17-fold with water and analysed using inductively coupled plasma mass spectrometry (ICP-MS, Thermo Scientific ICAP-Qc quadrupole ICP mass spectrometer). Gold levels are expressed as mass of Au (ng) per million cells. […]

[6] = Water-octanol partition coefficient (shake-flask, UV-vis); format: physicochemical; settings: room temperature 24 h
Method: Measurement of water-octanol partition coefficient (LogP). The LogP values for 1-8 were determined using the shake-flask method and UV-vis spectroscopy. The 1-octanol used in this experiment was pre-saturated with water. An aqueous solution of 1-8 (500 μL, 100 μM) was incubated with 1-octanol (500 μL) in a 1.5 mL tube. The tube was shaken at room temperature for 24 h. The two phases were separated by centrifugation and the 1-8 content in each phase was determined by UV-vis spectroscopy. […]

MDA-MB-468 cells = assay: Monolayer cytotoxicity (MTT assay), MDA-MB-468 cells; format: cell-based, human; settings: 72 h incubation
From the text: as §1, §2, §3, §4
Cellular Uptake. […]

4T1 cells = assay: Monolayer cytotoxicity (MTT assay), 4T1 cells; format: cell-based, murine; settings: 72 h incubation
From the text: as §1, §2, §3, §9, §10, §11

[7] = Solution stability by UV-vis and NMR spectroscopy; format: physicochemical
Method: The stability of 1–8 in solutions relevant for cell-based studies was determined by UV-vis spectroscopy studies. […] The DMSO- and PBS-stable complexes 1–4 (50 μM) were also deemed stable in MEGM : DMSO (1 : 1) over the course of 24 h at 37 °C (Fig. S22 ^†). Time course ^31P{^1H} and ^1H NMR spectroscopy studies were carried out to confirm the solution stability of 1–4. […] The ^1H NMR spectra for 1–3 (10 mM) remained unchanged over the same period (Fig. S26–S28 ^†). […] In the ^31P{^1H} NMR spectrum, the signal for intact 4 (at 27.05 ppm) completely disappeared after 48 h and was replaced by a signal corresponding to triphenylphosphine oxide (at 25.47 ppm) (Fig. S29 ^†). The formation of triphenylphosphine oxide was also detected in the ^1H NMR spectrum (Fig. S30 ^†). Additionally, plating of elemental gold was observed over the course of 72 h.

COX-2 [8] = assay: COX-2 expression assay (flow cytometry); format: cell-based, human; settings: LPS 2.5 μM 24 h pre-treatment; 1 at IC50 value or indomethacin 20 μM, 48 h
Method: COX-2 Expression Assay. HMLER-shEcad cells were seeded in 6-well plates (at a density […]
indomethacin (20 μM) and incubated for a further 48 h. The cells were then harvested by trypsinisation, fixed with 4% paraformaldehyde (at 37 °C for 10 min), permeabilised with ice-cold methanol (for 30 min), and suspended in PBS (200 μL). […]
labelled anti-COX-2 antibody (5 μL) was then added to the cell suspension and incubated in the dark for 1 h. The cells were then washed with PBS (1 mL) and analysed using a FACSCanto II flow cytometer (BD Biosciences) (10,000 events per sample were acquired) at the University of Leicester FACS Facility. The FL1 channel was used to assess COX-2 expression. Cell populations were analysed using the FlowJo software (Tree Star).
COX-2 Inhibition Enzyme Immunoassay (EIA). […]
(ovine) Inhibitor Screening Assay (Cayman Chemicals).” The assay was performed according to the manuf acturer’s instructions using a 96-well plate set up.

[9] = Homo sapiens, 72 h incubation, MTT
[10] = Homo sapiens, within concentration range tested

O=c1[nH]cc(F)c(=O)[nH]1 [5-Fluorouracil, 5-fluorouracil, reference compound]
IC50 ([1]; Homo sapiens, 120 h): 15 ± 1 µM

CCCCCOC(=O)Nc1nc(=O)n([C@@H]2O[C@H](C)[C@@H](O)[C@H]2O)cc1F [Capecitabine, capecitabine]
IC50 ([1]; Homo sapiens, 120 h): > 133 µM
IC50 (HMLER-shEcad cells [2]; [9]): > 100 µM
IC50 (HMLER cells; [9]): > 100 µM

N.N.O=C([O-])C1(C(=O)[O-])CCC1.[Pt+2] [Carboplatin, carboplatin]
IC50 [3]: 18 ± 1 µM

CC[C@@H](C(=O)[C@@H](C)[C@@H](O)[C@H](C)[C@@H]1O[C@@H]([C@@H](CC)C(=O)O)CC[C@@H]1C)[C@H]1O[C@]2(C=C[C@@H](O)[C@]3(CC[C@@](C)([C@H]4CC[C@](O)(CC)[C@H](C)O4)O3)O2)[C@H](C)C[C@@H]1C [Salinomycin, salinomycin]
IC50 (HMLER-shEcad cells [4]): 4.23 ± 0.35 µM
IC50 [3]: 19 ± 2 µM

CC(=O)OC[C@H]1O[C@@H]([S-])[C@H](OC(C)=O)[C@@H](OC(C)=O)[C@@H]1OC(C)=O.CCP(CC)CC.[Au+] [auranofin]
IC50 (HMLER-shEcad cells [2]; 72 h incubation, MTT): 0.026 ± 0.005 µM
fold more potent towards HMLER cells than HMLER-shEcad cells (HMLER cells): 2 fold
IC50 (HMLER cells; 72 h incubation, MTT): 0.013 ± 0.002 µM

[Cl][Au].c1ccc(P(c2ccccc2)c2ccccc2)cc1 [chloro(triphenylphosphine)gold(I)]
IC50 (HMLER-shEcad cells [2]; 72 h incubation, MTT): 0.216 ± 0.003 µM
fold less toxic towards HMLER and HMLER-shEcad cells than 1 (HMLER-shEcad cells [2]; compared with 1): up to 3.8 fold
IC50 (HMLER cells; 72 h incubation, MTT): 0.207 ± 0.005 µM
IC50 (COX-2 [5]): > 250 µM

O=C([O][Au][PH](c1ccccc1)(c1ccccc1)c1ccccc1)c1cc(-c2ccc(F)cc2F)ccc1O [complex 2]
IC50 [1]: 8 ± 1 µM
IC50 (HMLER-shEcad cells [2]; 72 h incubation, MTT): 0.138 ± 0.007 µM
IC50 (MDA-MB-231 cells): 5.79 ± 0.79 µM
IC50 (HMLER cells; 72 h incubation, MTT): 0.221 ± 0.003 µM
LogP value [6]: 1.54 ± 0.44
IC50 (MDA-MB-468 cells): 7.12 ± 0.1 µM
IC50 (4T1 cells): 7.25 ± 0.4 µM

COc1ccc2cc([C@H](C)C(=O)[O][Au][PH](c3ccccc3)(c3ccccc3)c3ccccc3)ccc2c1 [complex 3]
IC50 [1]: 8 ± 1 µM
IC50 (HMLER-shEcad cells [2]; 72 h incubation, MTT): 0.063 ± 0.006 µM
IC50 (MDA-MB-231 cells): 7.77 ± 0.41 µM
IC50 (HMLER cells; 72 h incubation, MTT): 0.183 ± 0.001 µM
IC50 (MDA-MB-468 cells): 6.48 ± 1.43 µM
IC50 (4T1 cells): 10.1 ± 0.86 µM

O=C(Cc1ccccc1Nc1c(Cl)cccc1Cl)[O][Au][PH](c1ccccc1)(c1ccccc1)c1ccccc1 [complex 4]
stability in DMSO-d6 (31P{1H} and 1H NMR) ([7]; 10 mM, 72 h): unstable in solution

O=C([O][Au][PH](c1ccccc1)(c1ccccc1)c1ccccc1)c1ccccc1O [complex 5]
stability in PBS : DMSO (1 : 1) (UV-vis) ([7]; 50 μM, 24 h, 37 °C): but not 5, was stable
LogP value [6]: 0.75 ± 0.01

Cc1c(Cl)cccc1Nc1ccccc1C(=O)[O][Au][PH](c1ccccc1)(c1ccccc1)c1ccccc1 [complex 6]
LogP value [6]: 1.17 ± 0.37

Cc1cccc(Nc2ccccc2C(=O)[O][Au][PH](c2ccccc2)(c2ccccc2)c2ccccc2)c1C [complex 7]
LogP value [6]: 0.83 ± 0.23

CC(C)Cc1ccc(C(C)C(=O)[O][Au][PH](c2ccccc2)(c2ccccc2)c2ccccc2)cc1 (stereo not drawn) [complex 8]
LogP value [6]: 1.19 ± 0.01

COc1ccc2c(c1)c(CC(=O)O)c(C)n2C(=O)c1ccc(Cl)cc1 [indomethacin]
IC50 (HMLER-shEcad cells [2]; [10]): > 100 µM
IC50 (HMLER cells; [10]): > 100 µM
COX-2 expression (COX-2 [8]): decreased
